The values that follow come from patent US8772269B2, “Use of sulfonamide-including compounds in combination with angiogenesis inhibitors” (Eisai R&D Management Co., Ltd., priority 2004, dated 2014).

pIC50: −log10 of the molar value.

In experiment [1] the test system is human renal cancer cell line 786-O. Description: Subcutaneous transplantation model of 786-O, E7820 and Compound A. The settings on record: E7820 100 mg/kg twice a day, Compound A 100 mg/kg once a day, oral, 2 weeks; alone or combined. The experiment is classed as in vivo, nude mice. How it is done: Human renal cancer cell line 786-O (purchased from ATCC) was cultured in RPMI1640 (containing 10% FBS) to about 80% confluency in a 5% carbon dioxide incubator, and the cells were collected by trypsin-EDTA. The cells were diluted with 50% Matrigel-containing phosphate buffer to prepare a 1×10^8 cells/mL suspension, and the resulting cell suspension was subcutaneously transplanted in 0.1 mL volumes to nude mice at the side of their body. Starting from 7 days after the transplantation, E7820 (100 mg/kg, given twice a day for 2 weeks) and 4-(3-chloro-4-(cyclopropylaminocarbonyl)aminophenoxy)-7-methoxy-6-quinolinecarboxamide (100 mg/kg, given once a day for 2 weeks) were administered alone or in combination by the oral route. Tumor long and short axes were measured with a digimatic caliper (Mitsutoyo) and used to calculate both tumor volume and relative tumor volume according to the following equations. Tumor volume TV=tumor long axis(mm)×tumor short axis^2(mm^2)/2 Relative tumor volume RTV=tumor volume at the day of measurement/tumor volume at the first day of administration

Experiment [2] deals with human colon cancer cell line Colo320DM. The experiment is described as follows: Subcutaneous transplantation model of Colo320DM, E7070 and bevacizumab. The settings on record: E7070 40 mg/kg/day i.v. Day 1-5, bevacizumab 25 mg/kg/day i.v. Days 1, 5, 8, 12; for Relative tumor volume (RTV) Mean ± SD: at Day 23; for Tx4 Mean ± SD: time for tumor to grow 4-fold of initial volume. Format: in vivo, nude mice. How it is done: Human colon cancer cell line Colo320DM (purchased from ATCC) was cultured in RPMI1640 (containing 10% FBS) to about 80% confluency in a 5% carbon dioxide incubator, and the cells were collected by trypsin-EDTA. The cells were diluted with Hanks balanced solution to prepare a 5×10^7 cells/ml suspension, and the resulting cell suspension was subcutaneously transplanted in 0.1 mL volumes to nude mice at the side of their body.
After the transplantation, from the time point when the mean tumor volume reached 259 mm^3, E7070 (40 mg/kg/day) and bevacizumab (25 mg/kg/day) were administered alone or in combination.
E7070 alone was administered once a day for 5 days (Day 1 to Day 5) by the intravenous route. Bevacizumab alone was administered twice a week for 2 weeks (Days 1, 5, 8 and 12) by the intravenous route.
The co-treated group was administered with E7070 at Day 1 to Day 5 by the intravenous route and with bevacizumab at Days 1, 5, 8 and 12 by the intravenous route.
After starting the administration, tumor long and short axes were measured at a frequency of twice a week with a digimatic caliper (Mitsutoyo) and used to calculate the tumor volume according to the following equation. Tumor volume TV=tumor long axis(mm)×tumor short axis^2(mm^2)/2
For determination of the anti-tumor effect, the values of the following two parameters were used.
Tx4: Time (days) required for a tumor to grow 4-fold of the initial tumor volume
RTV: Relative tumor volume (RTV) at Day 23* • * RTV=tumor volume at Day 23/initial tumor volume at Day 1
Likewise, if the co-treated group produces a higher anti-tumor effect than the groups treated with either drug alone and has a significance level of 0.05<P<0.10, E7070 and bevacizumab are determined to have a synergistic tendency.

A further experiment concerns HCT116-C9. The experiment is described as follows: Cell growth inhibition assay (MTT method), cross resistance study. As to conditions: Example 5, HCT116-C9, 72 hours, read-out: antiproliferative activity IC50. Format: cell-based, human. The text has this:
E7070-resistant sub-clonal cell lines were used to evaluate the antiproliferative activity of E7820, LY186641, LY295501, LY-ASAP and CQS. HCT116-C9 was a sub-clone separated from the human colon cancer cell line HCT116 (American Type Culture Collection, Manassas, Va., U.S.A.), while HCT116-C9-C1 and HCT116-C9-C4 were E7070-resistant sub-clonal cell lines obtained by culturing this HCT116-C9 in the presence of gradually increasing concentrations of E7070 (Molecular Cancer Therapeutics, 2002, 1, 275-286).
These 3 cell lines HCT116-C9, HCT116-C9-C1 and HCT116-C9-C4 were each seeded at 3000 cells/well in 96-well microplates (flat-bottomed) (50 μl/well). After 24 hours, a 3-fold dilution series of each compound was added (50 μl/well). After 72 hours, the cell growth inhibitory activity was evaluated by the MTT method (Mossmann T., J. Immunol. Methods, 1983, 65, 55-63). The least squares method was used to determine the 50% growth inhibitory concentration of each compound against each cancer cell line.
Exactly the same procedure as used in Example 4 was repeated to evaluate the antiproliferative activity of both LY573636 and E7070 using E7070-resistant sub-clonal cell lines.
A general note: Tetrazolium assays rely on reduction of a dye to a coloured formazan, in cell work by metabolically active cells.

Experiment [3] has as its system Human umbilical vein endothelial cells. The experiment is described as follows: VEGF-induced cell proliferation in vascular endothelial cell proliferation assay (in vitro). Format: cell-based. As to conditions: 3 days, absorbance relative to untreated cells. How it is done:
Human umbilical vein endothelial cells were suspended in 2% FBS-containing Human endothelial-SFM Basal Growth Medium (Invitrogen Corporation) and adjusted to 1×10^4 cells/ml. The resulting cell suspension was dispensed in 100 μl aliquots into each well of 96-well plates and cultured at 37° C. in a 5% carbon dioxide incubator. On the next day, a solution containing E7820, a solution containing bevacizumab (Avastin®, purchased from Genentech), and a solution containing both E7820 and bevacizumab were respectively diluted with Human endothelial-SFM Basal Growth Medium containing 20 ng/ml VEGF (Genzyme Techne Corp.) and 2% FBS. The resulting diluted solutions were then added to the individual wells of the plates in a volume of 100 μl/well, followed by further culturing.
The combined effect was calculated according to the equation of Chou et al. (Adv. Enzyme Regul., 22, 27-55, 1984).

In experiment [4] the test system is human colon cancer cell line Colo320DM. The experiment is described as follows: Subcutaneous transplantation model of Colo320DM, E7820 and bevacizumab. As to conditions: E7820 200 mg/kg twice a day oral 3 weeks; bevacizumab 25 mg/kg twice a week intravenous 3 weeks; alone or combined. Format: in vivo, nude mice. How it is done:
Human colon cancer cell line Colo320DM (purchased from Dainippon Pharmaceutical Co., Ltd., Japan) was cultured at 37° C. in RPMI1640 (containing 10% FBS) to about 80% confluency in a 5% carbon dioxide incubator, and the cells were collected by trypsin-EDTA. The cells were diluted with 50% Matrigel-containing phosphate buffer to prepare a 5×10^7 cells/mL suspension, and the resulting cell suspension was subcutaneously transplanted in 0.1 mL volumes to nude mice at the side of their body. Starting from 7 days after the transplantation, E7820 (200 mg/kg, given twice a day for 3 weeks by the oral route) and bevacizumab (25 mg/kg, given twice a week for 3 weeks by the intravenous route) were administered. Tumor long and short axes were measured with a digimatic caliper (Mitsutoyo) and used to calculate both tumor volume and relative tumor volume according to the following equations. Tumor volume TV=tumor long axis(mm)×tumor short axis^2(mm^2)/2 Relative tumor volume RTV=tumor volume at the day of measurement/tumor volume at the first day of administration

The mark [5] stands for this setting: compound concentration 0.0006 μg/μl.
Where [6] appears, read: compound concentration 0.0012 μg/μl.
The mark [7] stands for this setting: compound concentration 0.0024 μg/μl.
Where [8] appears, read: compound concentration 0.0049 μg/μl.
Where [9] appears, read: compound concentration 0.0098 μg/μl.
Where [10] appears, read: compound concentration 0.0195 μg/μl.
Setting [11] is: compound concentration 0.0391 μg/μl.
The mark [12] stands for this setting: compound concentration 0.0781 μg/μl.
Where [13] appears, read: compound concentration 0.1563 μg/μl.
Setting [14] is: compound concentration 0.3125 μg/μl.
The mark [15] stands for this setting: compound concentration 0.6250 μg/μl.
Setting [16] is: compound concentration 1.2500 μg/μl.
Where [17] appears, read: compound concentration 2.5000 μg/μl.
Where [18] appears, read: compound concentration 5.0000 μg/μl.
The mark [19] stands for this setting: compound concentration 10.0000 μg/μl.
[20] abbreviates: compound concentration 20.0000 μg/μl.
[21] abbreviates: compound concentration 40.0000 μg/μl.

As for `COc1cc2nccc(Oc3ccc(NC(=O)NC4CC4)c(Cl)c3)c2cc1C(N)=O` [Compound A, 4-(3-chloro-4-(cyclopropylaminocarbonyl)aminophenoxy)-7-methoxy-6-quinolinecarboxamide], in experiment [1], the “Relative tumor volume at Day 22 Mean ± SD” value turned out to be 0.59 ± 0.12.
One may read the pIC50 as the IC50 on a negative log10 scale, so that one unit is a factor of ten. `NS(=O)(=O)c1ccc(S(=O)(=O)Nc2cccc3c(Cl)c[nH]c23)cc1` [E7070, N-(3-chloro-1H-indol-7-yl)-4-sulfamoylbenzenesulfonamide]: in experiment [2], the “Relative tumor volume (RTV) Mean ± SD” value is 2.70 ± 0.97 and the “Tx4 Mean ± SD” value was 27.0 ± 3.4 days. In addition, the pIC50 with HCT116-C9 is 6.90.
In the case of `Cc1ccc(NS(=O)(=O)c2cccc(C#N)c2)c2[nH]cc(C#N)c12` [E7820, N-(3-cyano-4-methyl-1H-indol-7-yl)-3-cyanobenzenesulfonamide], the “% of control” value is 98.9 % of control in experiment [3] (setting [5]); 102.2 % of control in experiment [3] (setting [6]); 104.8 % of control in experiment [3] (setting [7]); 99.4 % of control in experiment [3] (setting [8]); 97.2 % of control in experiment [3] (setting [9]); 88.9 % of control in experiment [3] (setting [10]). Moreover, the “% of control” value was 87.9 % of control in experiment [3] (setting [11]); 72.3 % of control in experiment [3] (setting [12]); 60.5 % of control in experiment [3] (setting [13]); 56.2 % of control in experiment [3] (setting [14]); 57.2 % of control in experiment [3] (setting [15]); 47.8 % of control in experiment [3] (setting [16]). Further, the “% of control” value in experiment [3] (setting [17]) is recorded as 41.4 % of control; in experiment [3] (setting [18]) it was 37.4 % of control; in experiment [3] (setting [19]), 34.4 % of control; in experiment [3] (setting [20]), 33.1 % of control; in experiment [3] (setting [21]) it was 12.5 % of control. The “Relative tumor volume at Day 22 Mean ± SD” value in experiment [1] stood at 0.80 ± 0.13.
On to “Bevacizumab: human anti-VEGF (vascular endothelial growth factor) monoclonal antibody, purchased from Genentech under the name Avastin [reference compound]”, for which the “Relative tumor volume (RTV) Mean ± SD” value in experiment [2] was 2.84 ± 0.68. Besides, the “Tx4 Mean ± SD” value in experiment [2] is 26.3 ± 2.8 days. For the same compound, the “% of control” value was 96.0 % of control in experiment [3] (setting [5]); 94.2 % of control in experiment [3] (setting [6]); 89.5 % of control in experiment [3] (setting [7]); 88.3 % of control in experiment [3] (setting [8]); 80.8 % of control in experiment [3] (setting [9]); 78.8 % of control in experiment [3] (setting [10]). Also, the “% of control” value is 71.0 % of control in experiment [3] (setting [11]); 68.5 % of control in experiment [3] (setting [12]); 64.2 % of control in experiment [3] (setting [13]); 62.0 % of control in experiment [3] (setting [14]); 60.1 % of control in experiment [3] (setting [15]); 56.1 % of control in experiment [3] (setting [16]). In addition, the “% of control” value in experiment [3] (setting [17]) is listed as 51.8 % of control; in experiment [3] (setting [18]) it was 54.8 % of control; in experiment [3] (setting [19]) it was 53.2 % of control; in experiment [3] (setting [20]), 50.4 % of control; in experiment [3] (setting [21]) it was 51.7 % of control. Besides, the “Relative tumor volume at Day 22 Mean ± SD” value in experiment [4] worked out at 5.1 ± 0.8.
